Test results: publication PMC9090415, “Discovery of small molecule inhibitors of Plasmodium falciparum apicoplast DNA polymerase” (Journal of Enzyme Inhibition and Medicinal Chemistry, 2022)

Biological target: P. falciparum apicoplast DNA polymerase (Pf-apPOL) (Plasmodium falciparum, UniProt Q8ILY1)
Test: Fluorescence-based high-throughput DNA polymerase assay (molecular beacon), primary screen and dose-response
Type: biochemical
Method: The HT assay employs a molecular beacon, a stem-loop DNA template with a Cy3 dye and the Black Hole Quencher on the 3′ and 5′ ends of the DNA, respectively. Pf-apPOL concentration is based on a calculated absorptivity of ε280 = 56750 M^−1 cm^−1. Reactions were carried out at 25 °C, using Corning 3575 […] (well-volume, 20 µL). Assays testing for compound inhibition composed of reaction buffer (pH 7.9 in 50 mM potassium acetate, 20 mM Tris-acetate and 10 mM magnesium acetate), Pf-apPOL (20 nM), DNA substrate (20 nM), dNTPs (6 µM), and compound (10 µM in DMSO). The DNA and nucleotide substrates (dNTPs) were at concentrations of 20 nM and 6 µM, respectively, in the assay. Pf-apPOL was incubated in the reaction buffer with dNTPs and the compound of interest (10 µM, in the assay) at 25 °C for 10 min. The DNA substrate was then added and the reaction was allowed to proceed for 90 min at 25 °C.
Each assay plate contained 16 negative controls (no Pf-apPOL, DMSO present) and 16 positive controls (Pf-apPOL present, no DMSO). The fluorescence of each well was determined using a BioTek Synergy Neo fluorescence plate reader using excitation and emission wavelengths of 555 and 570 nm, respectively.
In the above, Min is the average of fluorescence emission of the negative controls (substrate only), Max the average fluorescence emission from the positive controls (enzyme + substrate), and Test the emission from the assays in the presence of compounds (enzyme + compound + substrates). […] […] The IC50 of each compound was determined using Equation (2): (2) IC50= Vmax/(1+ (I/IC50)^n)
In the above, n measures cooperativity, with n > 1 indicating synergistic binding of more than a single molecule of the compound.
To identify apPOL inhibitors we utilised our previously developed high-throughput DNA polymerase assay. The HT assay is based on a molecular beacon DNA template that forms a stem-loop with a Cy3 dye and the Black Hole Quencher on the 3′ and 5′ ends of the DNA, respectively. DNA polymerase activity extends an annealed primer through the stem region, displacing the fluorophore from the quencher, thereby increasing its fluorescence (Figure 1(A)). The assay accurately recapitulates the kinetic behaviour of apPOL, as measured through more conventional low-throughput gel-based assays. The Z′ factor for the assay described here was 0.9 across all plates (data not shown).
Figure 1. High-throughput screening. (A) The fluorescent-based DNA polymerase assay used to screen the compound libraries. The DNA template strand is a hairpin loop with a primer annealed to the loop. The 3’ end of the primer is 11 bases away from the 6 bp duplex. Strand displacement activity of the DNA polymerase separates the Cy3 dye from the Black hole quencher leading to an increase in fluorescent signal. (B) The high-throughput assay workflow. The DNA polymerase is incubated with […] compound for 10 min prior to addition of the hairpin substrate. The reaction is quenched at 3 different time points and the fluorescent signal is measured and % inhibition is determined using the provided equation.

Chain of P. falciparum apicoplast DNA polymerase (Pf-apPOL) (Q8ILY1 entry or part of it): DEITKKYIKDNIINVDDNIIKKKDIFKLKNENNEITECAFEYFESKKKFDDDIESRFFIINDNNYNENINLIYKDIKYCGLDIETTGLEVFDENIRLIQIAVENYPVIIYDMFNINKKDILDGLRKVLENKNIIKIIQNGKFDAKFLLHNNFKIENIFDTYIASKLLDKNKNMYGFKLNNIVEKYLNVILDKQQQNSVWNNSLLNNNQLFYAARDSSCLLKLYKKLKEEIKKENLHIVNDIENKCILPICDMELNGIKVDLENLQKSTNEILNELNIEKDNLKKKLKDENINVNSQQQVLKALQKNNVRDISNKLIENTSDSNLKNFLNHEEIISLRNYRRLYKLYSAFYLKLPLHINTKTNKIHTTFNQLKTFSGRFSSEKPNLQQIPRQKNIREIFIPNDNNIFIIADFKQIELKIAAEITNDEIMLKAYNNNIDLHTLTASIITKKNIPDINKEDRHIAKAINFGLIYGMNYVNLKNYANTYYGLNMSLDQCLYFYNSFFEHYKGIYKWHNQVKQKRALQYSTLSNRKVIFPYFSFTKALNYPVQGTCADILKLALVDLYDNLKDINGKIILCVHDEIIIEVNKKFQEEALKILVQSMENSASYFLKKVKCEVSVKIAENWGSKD

Cn1nc(C(=O)N2CCc3c(nc4cc(-c5ccccc5)[nH]n4c3=O)C2)c2ccccc21 [Molecule 18, O=c1c2CCN(Cc2nc2n1[nH]c(c2)c1ccccc1)C(=O)c1nn(c2c1cccc2)C]
DNA Pol (186 hits, value of the hit list (primary screen); unit not given; 90 min, 10 µM): 46
% inhibition Apo pol 10' (DRC-1; 10'; concentration 2.5): 9%
% inhibition Apo pol 10' (DRC-1; 10'; concentration 5): 28%
% inhibition Apo pol 10' (DRC-1; 10'; concentration 10): 66%
% inhibition Apo pol 10' (DRC-1; 10'; concentration 20): 74%
% inhibition Apo pol 10' (DRC-1; 10'; concentration 40): 72%
% inhibition Apo pol 10' (DRC-1; 10'; concentration 80): 55%
% inhibition Apol 90' (DRC-1; 90'; concentration 2.5): 1.64%
% inhibition Apol 90' (DRC-1; 90'; concentration 5): 16%
% inhibition Apol 90' (DRC-1; 90'; concentration 10): 49%
% inhibition Apol 90' (DRC-1; 90'; concentration 20): 59%
% inhibition Apol 90' (DRC-1; 90'; concentration 40): 58%
% inhibition Apol 90' (DRC-1; 90'; concentration 80): 54%
% inhibition apPOL 180' (DRC-1; 180'; concentration 2.5): -3.8%
% inhibition apPOL 180' (DRC-1; 180'; concentration 5): 6%
% inhibition apPOL 180' (DRC-1; 180'; concentration 10): 33%
% inhibition apPOL 180' (DRC-1; 180'; concentration 20): 39%
% inhibition apPOL 180' (DRC-1; 180'; concentration 40): 34%
% inhibition apPOL 180' (DRC-1; 180'; concentration 80): 34%
% inhibition Apo pol 5' (DRC-2, 5', concentration 2.5): 5.33%
% inhibition Apo pol 5' (DRC-2, 5', concentration 5): 20%
% inhibition Apo pol 5' (DRC-2, 5', concentration 10): 36%
% inhibition Apo pol 5' (DRC-2, 5', concentration 20): 45%
% inhibition Apo pol 5' (DRC-2, 5', concentration 40): 43%
% inhibition Apo pol 5' (DRC-2, 5', concentration 80): 30%
% inhibition Apol 40' (DRC-2, 40', concentration 2.5): 4%
% inhibition Apol 40' (DRC-2, 40', concentration 5): 23%
% inhibition Apol 40' (DRC-2, 40', concentration 10): 40%
% inhibition Apol 40' (DRC-2, 40', concentration 20): 54%
% inhibition Apol 40' (DRC-2, 40', concentration 40): 56%
% inhibition Apol 40' (DRC-2, 40', concentration 80): 47%
% inhibition ApPOL 90' (DRC-2, 90', concentration 2.5): 4.38%
% inhibition ApPOL 90' (DRC-2, 90', concentration 5): 23%
% inhibition ApPOL 90' (DRC-2, 90', concentration 10): 39%
% inhibition ApPOL 90' (DRC-2, 90', concentration 20): 54%
% inhibition ApPOL 90' (DRC-2, 90', concentration 40): 55%
% inhibition ApPOL 90' (DRC-2, 90', concentration 80): 48%
% inhibition apPOL 180' (DRC-2, 180', concentration 2.5): 0.809%
% inhibition apPOL 180' (DRC-2, 180', concentration 5): 16%
% inhibition apPOL 180' (DRC-2, 180', concentration 10): 29%
% inhibition apPOL 180' (DRC-2, 180', concentration 20): 45%
% inhibition apPOL 180' (DRC-2, 180', concentration 40): 45%
% inhibition apPOL 180' (DRC-2, 180', concentration 80): 37%
% inhibition Apo pol 5' (DRC-2; 5'; concentration 20): 45%
% inhibition Apol 40' (DRC-2; 40'; concentration 5): 23%
% inhibition Apol 40' (DRC-2; 40'; concentration 20): 54%
% inhibition ApPOL 90' (DRC-2; 90'; concentration 5): 23%
% inhibition ApPOL 90' (DRC-2; 90'; concentration 10): 39%
% inhibition ApPOL 90' (DRC-2; 90'; concentration 20): 54%
% inhibition ApPOL 90' (DRC-2; 90'; concentration 40): 55%
% inhibition apPOL 180' (DRC-2; 180'; concentration 5): 16%
% inhibition apPOL 180' (DRC-2; 180'; concentration 20): 45%
% inhibition apPOL 180' (DRC-2; 180'; concentration 40): 45%
% inhibition Apo pol 10' (first dose-response; 10'; concentration 80): 55%
% inhibition Apol 90' (first dose-response; 90'; concentration 5): 16%
% inhibition Apol 90' (first dose-response; 90'; concentration 80): 54%
% inhibition apPOL 180' (first dose-response; 180'; concentration 20): 39%
% inhibition apPOL 180' (first dose-response; 180'; concentration 40): 34%
% inhibition apPOL 180' (first dose-response; 180'; concentration 80): 34%
DNA Pol (primary screen value, 'DNA Pol' only; 90 min, 10 µM): 46

CCN1C(=O)C(=Cc2cccc(OC)c2O)SC1=S [Molecule 78, CCN1C(=S)SC(=Cc2cccc(c2O)OC)C1=O]
% inhibition Apo pol 10' (DRC-1; 10'; concentration 2.5): -5.558%
% inhibition Apo pol 10' (DRC-1; 10'; concentration 5): -7.622%
% inhibition Apo pol 10' (DRC-1; 10'; concentration 10): -2.049%
% inhibition Apo pol 10' (DRC-1; 10'; concentration 20): 2.662%
% inhibition Apo pol 10' (DRC-1; 10'; concentration 40): 14.6723%
% inhibition Apo pol 10' (DRC-1; 10'; concentration 80): 44.8696%
% inhibition Apol 90' (DRC-1; 90'; concentration 2.5): -2.637%
% inhibition Apol 90' (DRC-1; 90'; concentration 5): -1.279%
% inhibition Apol 90' (DRC-1; 90'; concentration 10): 7.892%
% inhibition Apol 90' (DRC-1; 90'; concentration 20): 13.9946%
% inhibition Apol 90' (DRC-1; 90'; concentration 40): 28.6027%
% inhibition Apol 90' (DRC-1; 90'; concentration 80): 61.7186%
% inhibition apPOL 180' (DRC-1; 180'; concentration 2.5): 5.183%
% inhibition apPOL 180' (DRC-1; 180'; concentration 5): 11.9919%
% inhibition apPOL 180' (DRC-1; 180'; concentration 10): 27.7441%
% inhibition apPOL 180' (DRC-1; 180'; concentration 20): 33.831%
% inhibition apPOL 180' (DRC-1; 180'; concentration 40): 51.4318%
% inhibition apPOL 180' (DRC-1; 180'; concentration 80): 79.6969%
% inhibition Apo pol 5' (DRC-2, 5', concentration 2.5 (unit not given)): 8%
% inhibition ApPOL 90' (DRC-2, 90', concentration 20 (unit not given)): 8%
% inhibition Apo pol 5' (DRC-2; 5'; concentration 2.5): 8%
% inhibition Apo pol 5' (DRC-2; 5'; concentration 5): 3.24%
% inhibition Apo pol 5' (DRC-2; 5'; concentration 10): 14%
% inhibition Apo pol 5' (DRC-2; 5'; concentration 20): 21%
% inhibition Apo pol 5' (DRC-2; 5'; concentration 40): 38%
% inhibition Apo pol 5' (DRC-2; 5'; concentration 80): 40%
% inhibition Apol 40' (DRC-2; 40'; concentration 2.5): 2.6%
% inhibition Apol 40' (DRC-2; 40'; concentration 5): -11%
% inhibition Apol 40' (DRC-2; 40'; concentration 10): 9%
% inhibition Apol 40' (DRC-2; 40'; concentration 20): 12%
% inhibition Apol 40' (DRC-2; 40'; concentration 40): 39%
% inhibition Apol 40' (DRC-2; 40'; concentration 80): 41%
% inhibition ApPOL 90' (DRC-2; 90'; concentration 2.5): -1.1%
% inhibition ApPOL 90' (DRC-2; 90'; concentration 5): -22%
% inhibition ApPOL 90' (DRC-2; 90'; concentration 10): 5.68%
% inhibition ApPOL 90' (DRC-2; 90'; concentration 20): 8%
% inhibition ApPOL 90' (DRC-2; 90'; concentration 40): 35%
% inhibition ApPOL 90' (DRC-2; 90'; concentration 80): 36%
% inhibition apPOL 180' (DRC-2; 180'; concentration 2.5): -5.52%
% inhibition apPOL 180' (DRC-2; 180'; concentration 5): -102%
% inhibition apPOL 180' (DRC-2; 180'; concentration 10): -2.72%
% inhibition apPOL 180' (DRC-2; 180'; concentration 20): -1.34%
% inhibition apPOL 180' (DRC-2; 180'; concentration 40): 23%
% inhibition apPOL 180' (DRC-2; 180'; concentration 80): 25%
DNA Pol (primary screen value of the 186 hits; unit not given; 90 min, 10 µM): 43
DNA Pol (primary screen value, head "DNA Pol", unit not given; 90 min, 10 µM): 43
